Assays:
[1] = Plasma concentration in human with MDR1 3435 CC genotype at 400 mg, po once daily after 4 days; format: ADME, organism-based
[2] = Plasma concentration in human with MDR1 3435 CC or CT genotype at 400 mg, po once daily after 14 days coadministered with rifampin at 600 […], po once daily; format: ADME, organism-based; parameters: route oral
[3] = AUC (0 to 24 hrs) in human at 400 mg, po once daily after 14 days coadministered with rifampin at 600 mg, po once daily; format: ADME, organism-based; parameters: dose 400 mg, time < 24 hr, route oral; conditions: plasma
[4] = AUC (0 to 24 hrs) in human with MDR1 3435 CC or CT genotype at 400 mg, po once daily after 4 days; format: ADME, organism-based; parameters: dose 400 mg, time < 24 hr, route oral; conditions: plasma
[5] = Plasma concentration in human with MDR1 3435 CC or CT genotype at 400 mg, po once daily after 4 days; format: ADME, organism-based
[6] = Tmax in human with MDR1 3435 CC or CT genotype at 400 mg, po once daily after 4 days; format: ADME, organism-based; conditions: in vivo
[7] = Tmax in human with MDR1 3435 CC genotype at 400 mg, po once daily after 14 days coadministered with rifampin at 600 […], po once daily; format: ADME, organism-based; parameters: route oral; conditions: in vivo
[8] = Tmax in human with MDR1 3435 CC or CT genotype at 400 mg, po once daily after 14 days coadministered with rifampin at 600 […], po once daily; format: ADME, organism-based; parameters: route oral; conditions: in vivo
[9] = AUC (0 to 24 hrs) in human with MDR1 3435 CC genotype at 400 mg, po once daily after 14 days coadministered with rifampin at 600 […], po once daily; format: ADME, organism-based; parameters: time < 24 hr, route oral; conditions: plasma
[10] = Plasma concentration in human with MDR1 3435 CC genotype at 400 mg, po once daily after 14 days coadministered with rifampin at 600 […], po once daily; format: ADME, organism-based; parameters: route oral
[11] = Plasma concentration in human at 400 mg, po once daily after 14 days coadministered with rifampin at 600 mg, po once daily; format: ADME, organism-based
[12] = AUC (0 to 24 hrs) in human with MDR1 3435 CC genotype at 400 mg, po once daily after 4 days; format: ADME, organism-based; parameters: dose 400 mg, time < 24 hr, route oral; conditions: plasma
[13] = Tmax in human with MDR1 3435 CC genotype at 400 mg, po once daily after 4 days; format: ADME, organism-based; conditions: in vivo
[14] = AUC (0 to 24 hrs) in human at 400 mg, po once daily after 4 days; format: ADME, organism-based; parameters: dose 400 mg, time < 24 hr, route oral; conditions: plasma
[15] = Plasma concentration in human at 400 mg, po once daily after 4 days; format: ADME, organism-based
[16] = Tmax in human at 400 mg, po once daily after 14 days coadministered with rifampin at 600 mg, po once daily; format: ADME, organism-based; conditions: in vivo
[17] = AUC (0 to 24 hrs) in human with MDR1 3435 CT or TT genotype at 400 mg, po once daily after 14 days coadministered with rifampin at 600 mg, po once daily; conditions: plasma
[18] = Tmax in human at 400 mg, po once daily after 4 days; format: ADME, organism-based; conditions: in vivo
[19] = Plasma concentration in human at 600 mg, po once daily after 14 days coadministered with moxifloxacin at 400 mg, po once daily; format: ADME, organism-based
[20] = AUC (0 to 24 hrs) in human at 600 mg, po once daily after 14 days coadministered with moxifloxacin at 400 mg, po once daily; format: ADME, organism-based; parameters: dose 600 mg, time < 24 hr, route oral; conditions: plasma

| SMILES | concentration at 96 h [1] | concentration at 336 h [2] | AUC at 24 h [3] | AUC at 24 h [4] | concentration at 96 h [5] | Tmax [6] | Tmax [7] | Tmax [8] | AUC at 24 h [9] | concentration at 336 h [10] | concentration at 336 h [11] | AUC at 24 h [12] | Tmax [13] | AUC at 24 h [14] | concentration at 96 h [15] | Tmax [16] | AUC at 24 h [17] | Tmax [18] | concentration at 336 h [19] | AUC at 24 h [20] |
| --- | --- | --- | --- | --- | --- | --- | --- | --- | --- | --- | --- | --- | --- | --- | --- | --- | --- | --- | --- | --- |
| COc1c(N2C[C@@H]3CCCN[C@@H]3C2)c(F)cc2c(=O)c(C(=O)O)cn(C3CC3)c12 [MOXIFLOXACIN] | 3530 ng/mL | 3830 ng/mL | 29200 ng·h/mL | 39700 ng·h/mL | 3810 ng/mL | 1.91 h | 1.98 h | 1.05 h | 25500 ng·h/mL | 2940 ng/mL | 3600 ng/mL | 37200 ng·h/mL | 1.47 h | 39400 ng·h/mL | 3800 ng/mL | 1.56 h | 30300 ng·h/mL | 1.97 h | – | – |
| CO[C@H]1/C=C/O[C@@]2(C)Oc3c(C)c(O)c4c(O)c(c(/C=N/N5CCN(C)CC5)c(O)c4c3C2=O)NC(=O)/C(C)=C\C=C\[C@H](C)[C@H](O)[C@@H](C)[C@@H](O)[C@@H](C)[C@H](OC(C)=O)[C@@H]1C [RIFAMPIN] | – | – | – | – | – | – | – | – | – | – | – | – | – | – | – | – | – | – | 9900 ng/mL | 44000 ng·h/mL |

From ChEMBL document CHEMBL1155148 (Antimicrob Agents Chemother, 2007)
